Laboratory results: ChEMBL document CHEMBL4665813, “Antifungal polybrominated proxyphylline derivative induces Candida albicans calcineurin stress response in Galleria mellonella” (Bioorg Med Chem Lett, 2020)
pIC50: −log10 of the molar value. Blank lines part the entries; values can stand above or below the molecule they belong to. Active and inactive are the calls of the source. No cut-off for these calls is given here.

Legend:
Candida albicans [1] = assay: Reduction in Candida albicans SC5314 adhesion to epithelium expressing wild-type SAP9/10 at 5 uM; type: functional, organism-based
Vero [2] = assay: Inhibition of calcineurin in Candida albicans harboring sap9delta mutant assessed as change in CNB1 expression measured during invasion of African green monkey Vero cells at 5 uM after 18 hrs by RT-qPCR analysis (reference value: -4.39)
Candida albicans [3] = assay: Induction of apoptosis in Candida albicans harboring cnb1delta mutant at 20 uM; type: functional, organism-based
[4] = Toxicity in Galleria mellonella infected with Candida albicans CAI4 assessed as haemocyte aggregation in tracheal walls at 0.64 microg/mg infected with fungi followed by compound treatment for 1 hr by hematoxylin and eosin staining based analysis; conditions: dose 0.64 µg/mg
Candida albicans [5] = assay: Decrease in chitin level in Candida albicans harboring cnb1delta/CNB1 mutant by measuring staining index at 20 uM after 18 hrs by calcofluor White staining based flow cytometry analysis; type: functional
Candida albicans [6] = assay: Antifungal activity against Candida albicans CAI4 infected in Galleria mellonella larvae assessed as increase in larvae survival at 0.64 ug/mg measured within 5 days; type: functional, organism-based; conditions: time 5.0 day
Vero [7] = assay: Inhibition of calcineurin in Candida albicans CAI4 assessed as change in CNB1 expression measured during invasion of African green monkey Vero cells at 5 uM after 18 hrs by RT-qPCR analysis (reference value: -3.66); type: cell-based
Candida albicans [8] = assay: Induction of necrosis in Candida albicans by flow cytometry analysis; type: functional
Candida albicans [9] = assay: Antifungal activity against Candida albicans harboring cnb1delta/CNB1 mutant infected in Galleria mellonella larvae assessed as increase in larvae survival at 0.64 ug/mg measured within 5 days; type: functional, organism-based; conditions: dose 0.64 µg/mg, time 5.0 day
Candida albicans [10] = assay: Inhibition of calcineurin catalytic activity in Candida albicans at 5 uM
Candida albicans [11] = assay: Reduction in Candida albicans adhesion to epithelium expressing SAP9/10 mutant relative to control; type: functional; parameters: scale not given: the % may be the effect or the level left
Candida albicans [12] = assay: Induction of apoptosis in wild type Candida albicans SC5314 at 20 uM; type: functional
Candida albicans [13] = assay: Antibiofilm activity against Candida albicans at 5 to 20 uM; type: functional, organism-based; conditions: dose microM 5-20
[14] = Toxicity in Galleria mellonella infected with Candida albicans harboring cnb1delta/CNB1 assessed as effect on haemocyte aggregation at 0.64 microg/mg pre-treated with compound for 1 hr followed by fungal infection by hematoxylin and eosin staining based analysis
Candida albicans [15] = assay: Induction of apoptosis in Candida albicans at sub-MIC; type: functional, organism-based
[16] = Toxicity in Galleria mellonella infected with Candida albicans harboring cnb1delta/CNB1 assessed as formation of nodules at 0.64 microg/mg infected with fungi followed by compound treatment for 1 hr by hematoxylin and eosin staining based analysis; conditions: dose 0.64 µg/mg
Candida albicans [17] = assay: Reduction in Candida albicans SC5314 adhesion to epithelium expressing wild-type SAP9/10 at 20 uM; type: functional, organism-based
Candida albicans [18] = assay: Induction of cell membrane permeabilization in Candida albicans by flow cytometry analysis; type: functional, organism-based
Vero [19] = assay: Inhibition of calcineurin in Candida albicans harboring sap9/10delta mutant assessed as change in CNB1 expression measured during invasion of African green monkey Vero cells at 5 uM after 8 hrs by RT-qPCR analysis relative to control
[20] = Toxicity in Galleria mellonella infected with Candida albicans harboring cnb1delta/CNB1 assessed as effect on melanization at 0.64 microg/mg pre-treated with compound for 1 hr followed by fungal infection by hematoxylin and eosin staining based analysis; conditions: dose 0.64 µg/mg
Vero [21] = assay: Inhibition of calcineurin in Candida albicans harboring sap9/10delta mutant assessed as change in CNB1 expression measured during invasion of African green monkey Vero cells at 5 uM after 18 hrs by RT-qPCR analysis (reference value: -1.67)
[22] = Inhibition of calcineurin phosphatase activity (unknown origin); parameters: species or system Homo sapiens
[23] = Inhibition of calcineurin phosphatase activity in human Jurkat cells by Western blot analysis; type: cell-based

Structure (SMILES): CC(Cn1cnc2c1c(=O)n(C)c(=O)n2C)OCc1cn(CCCn2nc3c(Br)c(Br)c(Br)c(Br)c3n2)nn1 (stereo not drawn)
Activity (Candida albicans [1]): inactive | fold change (FC) (Vero [2]): 0.24 | Activity (Candida albicans [3]): Active | Activity [4]: Toxic | Activity (Candida albicans [5]): Active | Activity (Candida albicans [6]): Active | fold change (FC) (Vero [7]): -2.98 | Activity (Candida albicans [8]): Dose-dependent effect | Activity (Candida albicans [9]): Active | inhibition (Candida albicans [10]): Active | Activity (Candida albicans [11]): 100% | Activity (Candida albicans [12]): Active | Activity (Candida albicans [13]): Active | Activity [14]: Non-Toxic | Activity (Candida albicans [15]): Active | Activity [16]: Non-Toxic | Activity (Candida albicans [17]): Active | Activity (Candida albicans [18]): Dose-dependent effect | fold change (FC) (Vero [19]): -2.38 | Activity [20]: Non-Toxic | fold change (FC) (Vero [21]): -4.52

pIC50 [22]: 9.40 | pIC50 [23]: 8.70
Structure (SMILES): C=CC[C@@H]1/C=C(\C)C[C@H](C)C[C@H](OC)[C@H]2O[C@@](O)(C(=O)C(=O)N3CCCC[C@H]3C(=O)O[C@H](/C(C)=C/[C@@H]3CC[C@@H](O)[C@H](OC)C3)[C@H](C)[C@@H](O)CC1=O)[C@H](C)C[C@@H]2OC [TACROLIMUS ANHYDROUS]
